Measured values taken from article PMC10248530, “Screening the Thermotoga maritima genome for new wide-spectrum nucleoside and nucleotide kinases” (The Journal of Biological Chemistry, 2023).

Assays:
Format in all cases: biochemical
TmAMPK = target: T1, TmAMPK (Thermotoga maritima, UniProt Q9X1I8); assay: TLC or HPLC, […] h cascade; conditions: 1 mM NMP, 1.2 mM ATP, 5 mM acetyl phosphate with TmAcK (ATP regeneration), 10 mM MgCl2, pH 7.6, 37 °C
T1 construct: gene adk; synthetic gene, full length, expressed in E. coli, 80 °C heat step and Ni-NTA; tag not described
T1 sequence (Q9X1I8 1-220): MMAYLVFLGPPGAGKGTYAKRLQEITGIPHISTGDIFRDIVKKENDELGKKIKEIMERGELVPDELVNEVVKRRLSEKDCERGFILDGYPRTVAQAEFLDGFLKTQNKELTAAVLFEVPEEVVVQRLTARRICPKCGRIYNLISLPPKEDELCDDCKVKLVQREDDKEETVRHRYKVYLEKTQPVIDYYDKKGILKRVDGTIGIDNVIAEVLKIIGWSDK

TmPK = target: T2, TmPK (Thermotoga maritima, UniProt Q9WY51); assay: HPLC conversion, […] h; conditions: 1 mM substrate, 1.2 mM phosphoenolpyruvate, 2 mM MgCl2, 50 mM KCl, pH 7.6, 37 °C
T2 construct: gene pyk; synthetic gene, full length, expressed in E. coli, 80 °C heat step and Ni-NTA; tag not described
T2 sequence (Q9WY51 1-466): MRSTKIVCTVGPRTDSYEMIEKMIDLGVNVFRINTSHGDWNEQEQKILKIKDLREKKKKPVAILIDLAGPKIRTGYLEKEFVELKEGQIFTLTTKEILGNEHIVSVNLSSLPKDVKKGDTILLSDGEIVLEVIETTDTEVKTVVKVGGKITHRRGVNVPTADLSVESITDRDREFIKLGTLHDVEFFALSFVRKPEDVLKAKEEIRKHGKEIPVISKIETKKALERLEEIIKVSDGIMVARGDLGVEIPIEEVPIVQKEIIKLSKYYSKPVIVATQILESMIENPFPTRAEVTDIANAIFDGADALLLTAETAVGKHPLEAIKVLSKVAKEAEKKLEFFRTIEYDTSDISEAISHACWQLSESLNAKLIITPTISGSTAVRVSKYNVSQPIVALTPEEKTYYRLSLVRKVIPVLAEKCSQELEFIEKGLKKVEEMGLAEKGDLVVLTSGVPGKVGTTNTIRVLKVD

TmUMPK = target: T3, TmUMPK (Thermotoga maritima, UniProt Q9X1U0); assay: HPLC conversion, […] h; conditions: 1 mM substrate, 1.2 mM ATP, 2 mM MgCl2, 50 mM KCl, 5 mM DTT, Tris pH 7.6, 37 °C
T3 construct: gene pyrH; synthetic gene, full length, expressed in E. coli, 80 °C heat step and Ni-NTA; tag not described
T3 sequence (Q9X1U0 1-231): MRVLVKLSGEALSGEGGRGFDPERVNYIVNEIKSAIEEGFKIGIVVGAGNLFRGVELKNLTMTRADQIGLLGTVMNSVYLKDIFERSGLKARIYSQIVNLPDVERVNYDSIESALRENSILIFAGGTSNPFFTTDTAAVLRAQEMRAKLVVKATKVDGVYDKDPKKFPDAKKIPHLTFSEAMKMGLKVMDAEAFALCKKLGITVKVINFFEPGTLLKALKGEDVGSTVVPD

TmRK = target: T4, TmRK (Thermotoga maritima, UniProt Q9X055); assay: HPLC conversion, […] h; conditions: 1 mM substrate, 1.2 mM ATP, 2 mM MgCl2, 50 mM KCl, 5 mM DTT, Tris pH 7.6, 37 °C
T4 construct: gene rbsK; synthetic gene, full length, expressed in E. coli, 80 °C heat step and Ni-NTA; tag not described; PfkB family
T4 sequence (Q9X055 1-299): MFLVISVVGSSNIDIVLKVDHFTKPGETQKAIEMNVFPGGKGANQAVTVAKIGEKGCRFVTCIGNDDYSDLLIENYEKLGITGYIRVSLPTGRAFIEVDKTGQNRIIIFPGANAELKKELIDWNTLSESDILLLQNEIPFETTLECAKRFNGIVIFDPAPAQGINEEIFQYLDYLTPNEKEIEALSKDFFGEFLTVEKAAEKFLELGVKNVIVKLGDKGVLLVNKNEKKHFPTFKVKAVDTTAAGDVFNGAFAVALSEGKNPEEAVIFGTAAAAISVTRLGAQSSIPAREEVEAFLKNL

TmTK = target: T5, TmTK (Thermotoga maritima, UniProt Q9WYN2); assay: HPLC conversion, […] h; conditions: 1 mM substrate, 1.2 mM ATP, 2 mM MgCl2, 50 mM KCl, 5 mM DTT, Tris pH 7.6, 37 °C
T5 construct: gene tdk; synthetic gene, full length, expressed in E. coli, 80 °C heat step and Ni-NTA; tag not described
T5 sequence (Q9WYN2 whole entry): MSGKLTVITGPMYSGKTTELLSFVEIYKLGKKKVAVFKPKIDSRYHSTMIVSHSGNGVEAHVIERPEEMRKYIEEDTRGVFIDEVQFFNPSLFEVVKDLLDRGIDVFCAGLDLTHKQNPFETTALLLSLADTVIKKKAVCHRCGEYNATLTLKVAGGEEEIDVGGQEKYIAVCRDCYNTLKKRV

TmGMPK = target: T6, TmGMPK (Thermotoga maritima, UniProt Q9X215); assay: TLC or HPLC, […] h cascade; conditions: 1 mM NMP, 1.2 mM ATP, 5 mM acetyl phosphate with TmAcK (ATP regeneration), 10 mM MgCl2, pH 7.6, 37 °C
T6 construct: gene gmk; synthetic gene, full length, expressed in E. coli, 80 °C heat step and Ni-NTA; tag not described
T6 sequence (Q9X215 1-207): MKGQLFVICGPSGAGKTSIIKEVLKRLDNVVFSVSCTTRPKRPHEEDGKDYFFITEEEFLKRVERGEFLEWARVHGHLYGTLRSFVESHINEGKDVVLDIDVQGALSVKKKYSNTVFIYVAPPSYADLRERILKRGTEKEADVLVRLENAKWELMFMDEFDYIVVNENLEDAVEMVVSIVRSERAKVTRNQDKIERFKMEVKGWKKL

TmAcK = target: T7, TmAcK (Thermotoga maritima, UniProt Q9WYB1); assay: HPLC conversion, […] h; conditions: 1 mM substrate, 1.2 mM acetyl phosphate, 2 mM MgCl2, 50 mM KCl, pH 7.6, 37 °C
T7 construct: gene ackA; synthetic gene, full length, expressed in E. coli, 80 °C heat step and Ni-NTA; tag not described
T7 sequence (Q9WYB1 1-403): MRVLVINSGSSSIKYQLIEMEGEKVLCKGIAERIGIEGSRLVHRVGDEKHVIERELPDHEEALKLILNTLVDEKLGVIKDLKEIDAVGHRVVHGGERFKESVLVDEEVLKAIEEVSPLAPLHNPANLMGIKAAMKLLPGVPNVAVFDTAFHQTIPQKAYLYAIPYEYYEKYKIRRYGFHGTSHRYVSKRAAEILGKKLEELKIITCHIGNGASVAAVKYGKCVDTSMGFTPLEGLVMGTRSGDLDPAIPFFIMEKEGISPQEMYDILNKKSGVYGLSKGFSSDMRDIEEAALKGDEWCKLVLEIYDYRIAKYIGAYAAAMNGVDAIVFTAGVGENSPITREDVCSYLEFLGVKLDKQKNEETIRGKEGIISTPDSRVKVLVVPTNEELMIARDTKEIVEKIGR

Tm(d)CMPK = target: T8, Tm(d)CMPK (Thermotoga maritima, UniProt Q9X1F6); assay: TLC or HPLC, […] h cascade; conditions: 1 mM NMP, 1.2 mM ATP, 5 mM acetyl phosphate with TmAcK (ATP regeneration), 10 mM MgCl2, pH 7.6, 37 °C
T8 construct: gene cmk; synthetic gene, full length, expressed in E. coli, 80 °C heat step and Ni-NTA; tag not described
T8 sequence (Q9X1F6 1-220): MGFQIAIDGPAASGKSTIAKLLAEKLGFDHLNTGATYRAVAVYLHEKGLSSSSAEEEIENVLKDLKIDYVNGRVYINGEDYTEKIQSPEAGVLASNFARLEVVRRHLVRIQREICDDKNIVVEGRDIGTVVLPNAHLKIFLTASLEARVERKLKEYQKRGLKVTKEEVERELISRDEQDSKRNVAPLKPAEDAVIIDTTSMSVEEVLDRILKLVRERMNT

Nc1nc(F)nc2c1ncn2[C@@H]1O[C@H](COP(=O)(O)O)[C@@H](O)[C@@H]1O [fludarabine phosphate]
TLC or HPLC, 19 h cascade (TmAMPK): For TmAMPK, NTP formation was observed for all AMP analogs

Nc1nc2c(ncn2[C@@H]2O[C@H](COP(=O)(O)OP(=O)(O)O)[C@@H](O)[C@H]2O)c(=O)[nH]1 [guanosine 5′-diphosphate]
HPLC conversion, 19 h (TmPK): TmPK and TmAcK accepted all natural riboNDPs and deoxyriboNDPs

Nc1ccn([C@@H]2O[C@H](COP(=O)(O)O)[C@@H](O)[C@H]2O)c(=O)n1 [cytidine 5′-monophosphate]
HPLC conversion, 19 h (TmUMPK): TmUMPK which accepted all natural riboNMPs

O=c1ccn([C@@H]2O[C@H](CO)[C@@H](O)[C@H]2O)c(=O)[nH]1 [uridine]
HPLC conversion, 19 h (TmRK): it phosphorylates the natural nucleosides thymidine and uridine
HPLC conversion, 19 h (TmTK): TmTK accepted all deoxynucleosides and uridine

Nc1ncnc2c1ncn2[C@@H]1O[C@H](COP(=O)(O)O)[C@@H](O)[C@@H]1O [vidarabine phosphate]
TLC or HPLC, 19 h cascade (TmGMPK): TmGMPK phosphorylated the sugar-modified NMPs araGMP, vidarabine phosphate, and araUMP

Cc1cn([C@H]2C[C@H](O)[C@@H](CO)O2)c(=O)[nH]c1=O [thymidine]
HPLC conversion, 19 h (TmRK): it phosphorylates the natural nucleosides thymidine and uridine
HPLC conversion, 19 h (TmTK): TmTK accepted all deoxynucleosides and uridine

O=c1ccn([C@@H]2O[C@H](COP(=O)(O)OP(=O)(O)O)[C@@H](O)[C@H]2O)c(=O)[nH]1 [uridine 5′-diphosphate]
HPLC conversion, 19 h (TmAcK): TmPK and TmAcK accepted all natural riboNDPs and deoxyriboNDPs

Nc1ccn([C@@H]2O[C@H](COP(=O)(O)O)[C@@H](O)[C@@H]2O)c(=O)n1 [cytarabine phosphate]
TLC or HPLC, 19 h cascade (Tm(d)CMPK): Tm(d)CMPK converted the sugar-modified substrates araCMP, araGMP, and araUMP

O=c1ccn([C@@H]2O[C@H](COP(=O)(O)O)[C@@H](O)[C@H]2O)c(=O)[nH]1 [uridine 5′-monophosphate]
HPLC conversion, 19 h (TmUMPK): TmUMPK which accepted all natural riboNMPs
